Values belong to the compound of their own block, whether it stands above or below them.
Legend:
[1] = molecular target: T1, ATX in media from COS-7 cells (Homo sapiens, UniProt Q13822); experiment: AR-2 activation by media from COS-7 cells transfected with ATX-encoding plasmid; assay type: cell-based; settings: AR-2 1 µM
T1 construct: expressed in transfected cells; host or cells: COS-7
Description: COS-7 cells grown in Dulbecco's Modified Eagle Medium (DMEM) supplemented with 10% FBS and penicillin/streptomycin were transfected with human β ATX cDNA inserted into pcDNA DEST40 (Invitrogen, CA) or mock plasmid in DMEM without FBS using TransIT®-2020 transfection reagent (Mirus Bio, WI) according to the manufacturer's protocol.
(§1) Equal volumes of cell media (COS-7) or conditioned media (MDA-MB-231 or MDA-MB 435) were mixed with buffer to achieve a final concentration of AR-2 (1 µM). All other conditions were as described for purified enzymes.

[2] = Pharmacokinetics of AR-2 in plasma after intravenous dosing; assay type: in vivo, mice
Description: To investigate preliminary PK of AR-2, female BALB/c mice aged 8–10 wks old (Charles River Laboratories, MA) were used. The animals were allowed to acclimatize to housing at least one week prior to use. At day 0, AR-2 was administered as a single bolus injection through lateral tail vein at a dosage of 1.0 mg/kg b.w. The animals were then lightly anesthetized with isoflurane for blood collection at 0, 0.08, 0.25, 0.5, 1, 2, 4, 6, 24, and 48 h after AR-2 administration. Blood samples were collected in EDTA coated tubes by submandibular bleeding or caudal vena cava (at time of sacrifice) with the maximum number of two blood collections from each animal. The collected blood samples were centrifuged, and the plasma was stored at −20°C until analysis.
To determine the concentration of AR-2 in plasma, samples were prepared according to the following procedures. Plasma samples were mixed with nine volumes of tert-butanol∶water (7∶1) then centrifuged at 14,000× g to pellet precipitated proteins. The resulting supernatant was frozen and lyophilized. Samples were then reconstituted in cold PBS and subjected to HPLC analysis using a C18 column (Waters, Milford, MA) with a gradient of 5–60% acetonitrile in 50 mM triethylammonium acetate (pH 6.0). Peaks with absorbance at 778 nm were integrated and compared to mouse plasma samples containing known concentrations of AR-2. The resulting AR-2 concentration versus time data were plotted and fitted with a sum of two exponentials to calculate plasma half-life (t1/2) and various pharmacokinetic parameters using the PK package in R Statistics (version 2.15.1).

human ATX = molecular target: T2, human ATX (Homo sapiens, UniProt Q13822); experiment: AR-2 reactions with purified enzymes: human ATX; assay type: biochemical; settings: AR-2 100 nM, 10 nM enzyme
T2 construct: purchased Echelon Biosciences, Inc. (Salt Lake City, UT)
Description: (§2) AR-2 (100 nM) was incubated with the indicated enzyme in buffer containing 50 mM Tris-Cl pH 8.0, 5 mM KCl, 1 mM CaCl2, 1 mM MgCl2, 140 mM NaCl, and 1 mg/mL fatty acid free bovine serum albumin. Reactions were immediately placed in a Spectramax M2 plate reader (Molecular Devices, Sunnyvale, CA) set at 37°C, monitoring fluorescence exciting at 750 nm and emitting at 805 nm over time. Unless otherwise stated, all reactions used 10 nM enzyme, except alkaline phosphatase, which was performed at 0.1 unit/µL.

Purified human ATX [3] = molecular target: T3, Purified human ATX (Homo sapiens, UniProt Q13822); experiment: Michaelis constant of fluorogenic ATX substrates; assay type: biochemical; settings: fluorogenic ATX substrate, rate of fluorescence increase at varying substrate concentrations
T3 construct: purchased Echelon Biosciences, Inc. (Salt Lake City, UT)
Description: as §2
(§3) The Michaelis constant (Km) was determined for each compound by measuring the rate of fluorescence increase at varying substrate concentrations using Prism to fit to the Michaelis-Menton equation. Inner filter effects were overcome using previously described methods. The inhibition constant (Ki) for each set of reactions was determined from the IC50 following standard methods.

[4] = tested on: MDA-MB-231 orthotopic tumor (ATX activity); experiment: In vivo NIRF imaging and ex vivo tissue analysis of mice with orthotopic tumors
Source text: Animal studies were approved by the Institutional Animal Care and Use Committee (IACUC) of the University of Utah (protocol numbers 10-10016 and 12-05013). Tumors in mice were established as previously described, [41]. Briefly, approximately ten-week old female nude (Nu/Nu) mice (Charles River Laboratories International, Wilmington, MA) were lightly anesthetized with isoflurane and subcutaneously inoculated with MDA-MB-231 cells in the left thoracic mammary glands. Prior to inoculation, cells were suspended in Extracel to make 5×10^7 cells/mL and each mouse received 0.1 mL of Extracel tumor suspension. To reduce auto-fluorescence arising from the feed, mice were switched to specially formulated diet (2920X, Harlan Laboratories, WI) at least two days prior to imaging.
Six weeks after tumor graft, mice were imaged using AR-2. To visualize tumors, AR-2 was diluted in PBS, filtered through a 0.2 µm porous membrane, and intravenously injected via the lateral vein at 0.5 mg/kg b.w. bolus. The animals were then imaged 48 h after injection with a Pearl Impulse Imager (LI-COR Biosciences, NE) using the 800 nm channel. The fluorescence signals from acquired images were analyzed using Pearl Impulse Software v 2.0 (LI-COR Biosciences) according the manufacturer's protocols. […] ATX-Red dosing, delivery and imaging were unchanged.
Animals were sacrificed, organs were dissected and weighed, then ex vivo fluorescence was imaged and quantified as previously described. Tumors were immediately frozen until further use. Thawed tumors were homogenized in ice cold buffer containing 10 mM Tris pH 7.4, 200 mM NaCl, 10% glycerin, 5 mM EDTA and 1× Halt protease inhibitor cocktail (Thermo Scientific, Rockford, Il.) at a ratio of 40 mg tumor to 1 mL buffer. Samples were centrifuged at 14,000× g at 4°C. ATX levels were determined by diluting supernatants ten times in RD5-10 and assayed using a Human ENPP-2/Autotaxin ELISA (R&D Systems, Minneapolis, MN) and an Autotaxin Sandwich ELISA (Echelon Biosciences, Inc., Salt Lake City, UT) using the manufacturers' protocol. Total protein levels were determined by the method of Bradford. Statistical significance was compared using a two-tailed t-test using Prism.

[5] = tested on: human NPP1, human and mouse NPP7, shrimp alkaline phosphatase, human LPLA2 and human INPP4A; experiment: AR-2 reactions with purified enzymes homologous to ATX (selectivity panel); assay type: biochemical; settings: AR-2 100 nM, 10 nM enzyme (alkaline phosphatase 0.1 unit/µL), versus buffer control
Description: as §2

mouse ATX = molecular target: T4, mouse ATX (Mus musculus, UniProt Q9R1E6); experiment: AR-2 reactions with purified enzymes: mouse ATX; assay type: biochemical; settings: AR-2 100 nM, 10 nM enzyme
T4 construct: purchased R&D Systems (Minneapolis, MN)
Description: as §2

[6] = molecular target: T5, ATX in conditioned media from MDA-MB-435 and MDA-MB-231 cells (Homo sapiens, UniProt Q13822); experiment: AR-2 activation by conditioned media from cancer cells overexpressing ATX, with and without PF-8380; assay type: cell-based; settings: PF-8380 1 µM, conditioned media from MDA-MB-435 or MDA-MB-231 cells, AR-2 1 µM
T5 construct: host or cells: MDA-MB-231 and MDA-MB-435 (conditioned media concentrated about 40-fold)
Description: MDA-MB-231 and MDA-MB-435 cells were grown to 80% confluence in Roswell Park Memorial Institute (RPMI) medium supplemented with 10% FBS. Cells were rinsed twice with PBS and grown for approximately 60 h in RPMI supplemented with 1% FBS. Media were centrifuged at 1000× g for 1 min to collect cells. Conditioned media was prepared by concentrating the supernatant ∼40-fold using Amicon Ultra YM30 (Millipore, Billerica, MA).
as §1

Purified human ATX [7] = molecular target: T3, Purified human ATX; experiment: Evaluation of ATX inhibition with fluorogenic substrates (AR-2 or FS-3); assay type: biochemical; settings: human ATX 2 nM, 37°C, Ki determined from the IC50
Description: DMSO was spiked into each reaction mixture to equalize vehicle concentrations. Purified human ATX (2 nM final concentration) was mixed with varying concentrations of inhibitor at 37°C for 10 min, then AR-2 or FS-3 was added to a final concentration of 1 µM. The rates of fluorescence increase were measured for up to 2 h. The initial velocity of fluorescence increase was determined and normalized to control reactions. The IC50 of each compound was calculated by fitting a standard curve using a sigmoidal dose-response (variable slope) nonlinear regression curve using GraphPad Prism (version 5.03).
as §3

[8] = MDA-MB-231 xenografts, 48 h after AR-2 dosing, ex vivo

apparent volume of distribution (Vd) in 20 g mouse ([2]; 20 g mouse): 8.6 mL | fraction of AR-2 eliminated ([2]; 42 h after dosing (5 half-lives)): approximately 97% | half-life of first phase of bi-exponential plasma decrease ([2]; BALB/c mice, 1.0 mg/kg i.v. bolus, bi-exponential fit, first phase): 18 min | apparent volume of distribution (Vd) ([2]; mice, i.v.): 432 mL/kg, b.w. | apparent volume of distribution as share of body weight ([2]; mice, i.v.): ~43 % of body weight | activation of AR-2 fluorescence by human ATX (human ATX): activated AR-2 with similar efficiencies | Km (Purified human ATX [3]): 0.66 ± 0.05 µM | NIRF signal in excised tumors compared to most other organs [4, 8]: strongly elevated | NIRF signal in kidneys and liver [4, 8]: Moderate signals | NIRF signal in stomach [4, 8]: Modest fluorescence | activation of AR-2 fluorescence by mouse ATX (mouse ATX): activated AR-2 with similar efficiencies
Compound: CC1(C)C(/C=C/C2=C(Oc3ccc(S(=O)(=O)O)cc3)C(=C/C=C3/N(CCCCS(=O)(=O)O)c4ccc(S(=O)(=O)[O-])cc4C3(C)C)/CCC2)=[N+](CCCCCC(=O)NCCCCCC(=O)OC[C@@H](O)COP(=O)(O)OCCNC(=O)CCOCCOCCOCCOCCNC(=O)CCCCCN2/C(=C/C=C3\CCCC(/C=C/C4=[N+](CCCS(=O)(=O)O)c5ccc(N(CCCS(=O)(=O)O)CCCS(=O)(=O)O)cc5C4(C)C)=C3Cl)C(C)(C)c3c2ccc2cc(S(=O)(=O)[O-])ccc32)c2ccc(S(=O)(=O)O)cc21 [AR-2]
activation of AR-2 by media from ATX-transfected versus mock-transfected COS-7 cells [1]: media from ATX-transfected, but not mock-transfected, cells activated AR-2 | activation of AR-2 fluorescence by related enzymes [5]: none of the related enzymes tested generated a fluorescence response above buffer control

rate of AR-2 fluorescence signal generation in conditioned media with inhibitor [6]: dramatically reduced
Compound: O=C(CCN1CCN(C(=O)OCc2cc(Cl)cc(Cl)c2)CC1)c1ccc2[nH]c(=O)oc2c1 [PF-8380, reference compound]
AR-2 fluorescence signals in excised tumors normalized to protein, inhibitor-treated versus vehicle-treated mice ([4]; PF-8380 30 mg/kg single oral gavage 20 min prior to AR-2 injection, MDA-MB-231 tumors, P<0.001): significantly reduced

Ki (Purified human ATX [7]; ATX substrate AR-2 (1 µM)): 1.6 ± 1.9 nM | Ki (Purified human ATX [7]; ATX substrate FS-3 (1 µM)): 5.5 ± 3.3 nM
Compound: CCCCCCCCCCCCCC(=O)Nc1ccc(CP(=O)(O)O)cc1 [S32826]
